Earlier results on one compound are cited in publication PMC4876630 (Theranostics, 2016).

A word on the Aqueous solubility: it is how much of the substance goes into solution per volume.

The conditions of the data set: ref [4]-[8].

As for `CC[C@@]1(O)C(=O)OCc2c1cc1n(c2=O)Cc2cc3ccccc3nc2-1` [CPT, camptothecin], the Aqueous solubility was 2 to 3 µg/mL.
